In US9242970B2 (ACTELION PHARMACEUTICALS LTD., priority 2010, dated 2016):
Like-named read-outs stand apart in the source and are kept apart here. Each block holds one compound with its values, some of them ahead of it.

How the values were obtained:
human orexin-1 receptor = human orexin-1 receptor (Homo sapiens (Human), UniProt O43613); assay: In vitro assay: intracellular calcium measurements (FLIPR), antagonistic activity; type: cell-based; conditions: CHO cells, 3 nM orexin-A, marked values are geometric means of n = 2-6, read-out: IC50 OX1
human orexin-2 receptor = human orexin-2 receptor (Homo sapiens (Human), UniProt O43614); assay: as above; type: cell-based; conditions: CHO cells, 3 nM orexin-A, marked values are geometric means of n = 2-6, read-out: IC50 OX2
[1] = compound incubation time of 10 min

Sequence of human orexin-2 receptor (O43614 whole entry): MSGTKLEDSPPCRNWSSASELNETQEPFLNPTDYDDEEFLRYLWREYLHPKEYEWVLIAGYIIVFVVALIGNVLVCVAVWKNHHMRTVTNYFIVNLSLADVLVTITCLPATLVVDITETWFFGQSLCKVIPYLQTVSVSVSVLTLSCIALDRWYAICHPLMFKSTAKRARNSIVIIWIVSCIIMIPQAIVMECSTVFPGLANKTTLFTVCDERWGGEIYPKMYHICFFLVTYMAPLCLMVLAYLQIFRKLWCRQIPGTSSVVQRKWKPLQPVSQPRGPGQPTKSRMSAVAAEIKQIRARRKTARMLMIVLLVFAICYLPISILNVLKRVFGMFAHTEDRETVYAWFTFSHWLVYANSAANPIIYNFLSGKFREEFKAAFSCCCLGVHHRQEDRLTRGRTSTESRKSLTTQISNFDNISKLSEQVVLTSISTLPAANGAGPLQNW
Sequence of human orexin-1 receptor (O43613 whole entry): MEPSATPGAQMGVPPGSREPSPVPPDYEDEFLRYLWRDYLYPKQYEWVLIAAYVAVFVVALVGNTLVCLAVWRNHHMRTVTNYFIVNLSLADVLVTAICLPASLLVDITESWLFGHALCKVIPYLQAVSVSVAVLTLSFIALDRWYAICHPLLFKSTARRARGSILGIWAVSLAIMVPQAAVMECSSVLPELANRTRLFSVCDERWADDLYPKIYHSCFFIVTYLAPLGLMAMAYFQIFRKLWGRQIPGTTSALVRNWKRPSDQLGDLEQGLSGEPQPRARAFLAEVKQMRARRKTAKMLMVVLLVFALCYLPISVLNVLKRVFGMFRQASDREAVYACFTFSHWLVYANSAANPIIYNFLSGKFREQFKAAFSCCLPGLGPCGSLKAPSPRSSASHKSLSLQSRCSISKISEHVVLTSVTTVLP

SMILES: COc1cccc(OC)c1C1CCCC(=O)N1Cc1ccc(OCCF)cc1 (stereo not shown) [Example 176, 6-(2,6-dimethoxyphenyl)-1-(4-(2-fluoroethoxy)benzyl)piperidin-2-one]
IC50 (human orexin-1 receptor; [1]): 327 nM | IC50 (human orexin-2 receptor; [1]): 61 nM

SMILES: COc1cccc(OC)c1C1CCCC(=O)N1Cc1ccc(OC(F)F)nc1 (stereo not shown) [Example 177, 1-((6-(difluoromethoxy)pyridin-3-yl)methyl)-6-(2,6-dimethoxyphenyl)piperidin-2-one]
IC50 (human orexin-1 receptor; [1]): 354 nM | IC50 (human orexin-2 receptor; [1]): 92 nM

SMILES: COc1cccc(OC)c1C1CCCC(=O)N1Cc1cccc(OC(F)F)c1 (stereo not shown) [Example 178, 1-(3-(difluoromethoxy)benzyl)-6-(2,6-dimethoxyphenyl)piperidin-2-one]
IC50 (human orexin-1 receptor; [1]): 215 nM | IC50 (human orexin-2 receptor; [1]): 78 nM

SMILES: COc1cccc(OC)c1C1CCCC(=O)N1Cc1cccc(Oc2ccccc2)c1 (stereo not shown) [Example 179, 6-(2,6-dimethoxyphenyl)-1-(3-phenoxybenzyl)piperidin-2-one]
IC50 (human orexin-1 receptor; [1]): 225 nM | IC50 (human orexin-2 receptor; [1]): 42 nM

SMILES: COc1cccc(OC)c1C1CCCC(=O)N1Cc1cc2ccccc2o1 (stereo not shown) [Example 180, 1-(benzofuran-2-ylmethyl)-6-(2,6-dimethoxyphenyl)piperidin-2-one]
IC50 (human orexin-1 receptor; [1]): 1450 nM | IC50 (human orexin-2 receptor; [1]): 170 nM

SMILES: COc1cccc(OC)c1C1CCCC(=O)N1Cc1cc2ccccc2s1 (stereo not shown) [Example 181, 1-(benzo[b]thiophen-2-ylmethyl)-6-(2,6-dimethoxyphenyl)piperidin-2-one]
IC50 (human orexin-1 receptor; [1]): 805 nM | IC50 (human orexin-2 receptor; [1]): 252 nM

SMILES: COc1cccc(OC)c1C1CCCC(=O)N1Cc1ccc2c(c1)OC(F)(F)O2 (stereo not shown) [Example 182, 1-((2,2-difluorobenzo[d][1,3]dioxol-5-yl)methyl)-6-(2,6-dimethoxyphenyl)piperidin-2-one]
IC50 (human orexin-1 receptor; [1]): 283 nM | IC50 (human orexin-2 receptor; [1]): 178 nM

SMILES: COc1cccc(OC)c1C1CCCC(=O)N1Cc1cccc(OC(F)F)n1 (stereo not shown) [Example 183, 1-((6-(difluoromethoxy)pyridin-2-yl)methyl)-6-(2,6-dimethoxyphenyl)piperidin-2-one]
IC50 (human orexin-1 receptor; [1]): 644 nM | IC50 (human orexin-2 receptor; [1]): 64 nM

SMILES: COc1cccc(OC)c1C1CCCC(=O)N1C(C)c1cnc(OC(F)F)c(Cl)c1 (stereo not shown) [Example 185, 1-(1-(5-chloro-6-(difluoromethoxy)pyridin-3-yl)ethyl)-6-(2,6-dimethoxyphenyl)piperidin-2-one]
IC50 (human orexin-1 receptor; [1]): 323 nM | IC50 (human orexin-2 receptor; [1]): 34 nM

SMILES: CCC(c1ccc(OC(F)(F)F)cc1)N1C(=O)CCCC1c1c(OC)cccc1OC (stereo not shown) [Example 186, 6-(2,6-dimethoxyphenyl)-1-(1-(4-(trifluoromethoxy)phenyl)propyl)piperidin-2-one]
IC50 (human orexin-1 receptor; [1]): 2770 nM | IC50 (human orexin-2 receptor; [1]): 5650 nM

SMILES: COc1cccc(OC)c1C1CCCC(=O)N1Cc1ccc(OC(F)F)cn1 (stereo not shown) [Example 187, 1-((5-(difluoromethoxy)pyridin-2-yl)methyl)-6-(2,6-dimethoxyphenyl)piperidin-2-one]
IC50 (human orexin-1 receptor; [1]): 235 nM | IC50 (human orexin-2 receptor; [1]): 70 nM

SMILES: COc1cccc(OC)c1C1CCCC(=O)N1Cc1cc(OC(F)F)ccn1 (stereo not shown) [Example 188, 1-((4-(difluoromethoxy)pyridin-2-yl)methyl)-6-(2,6-dimethoxyphenyl)piperidin-2-one]
IC50 (human orexin-1 receptor; [1]): 4180 nM | IC50 (human orexin-2 receptor; [1]): 484 nM

SMILES: COc1cccc(OC)c1C1CCCC(=O)N1Cc1cccc(-c2ccccc2)c1 (stereo not shown) [Example 189, 1-([1,1′-biphenyl]-3-ylmethyl)-6-(2,6-dimethoxyphenyl)piperidin-2-one]
IC50 (human orexin-1 receptor; compound incubation 120 min): 17 nM | IC50 (human orexin-2 receptor; compound incubation 120 min): 12 nM

SMILES: COc1cccc(OC)c1C1CCCC(=O)N1Cc1ccccc1-c1ccccc1 (stereo not shown) [Example 190, 1-([1,1′-biphenyl]-2-ylmethyl)-6-(2,6-dimethoxyphenyl)piperidin-2-one]
IC50 (human orexin-1 receptor; [1]): 1950 nM | IC50 (human orexin-2 receptor; [1]): 507 nM

SMILES: COc1cccc(OC)c1C1CCCC(=O)N1Cc1ccccc1Oc1ccccc1 (stereo not shown) [Example 191, 6-(2,6-dimethoxyphenyl)-1-(2-phenoxybenzyl)piperidin-2-one]
IC50 (human orexin-1 receptor; [1]): 373 nM | IC50 (human orexin-2 receptor; [1]): 50 nM

SMILES: COc1cccc(OC)c1C1CCCC(=O)N1Cc1ccc(Oc2ccccc2)nc1 (stereo not shown) [Example 192, 6-(2,6-dimethoxyphenyl)-1-((6-phenoxypyridin-3-yl)methyl)piperidin-2-one]
IC50 (human orexin-1 receptor; [1]): 361 nM | IC50 (human orexin-2 receptor; [1]): 29 nM

SMILES: COc1cccc(OC)c1C1CCCCC(=O)N1Cc1ccc(OC(F)(F)F)cc1 (stereo not shown) [Example 193, 7-(2,6-dimethoxyphenyl)-1-(4-(trifluoromethoxy)benzyl)azepan-2-one]
IC50 (human orexin-1 receptor; [1]): 257 nM | IC50 (human orexin-2 receptor; [1]): 66 nM

IC50 (human orexin-1 receptor; [1]): > 12700 nM | IC50 (human orexin-2 receptor; [1]): 669 nM
SMILES: CCOc1ccccc1C1CCC(=O)N1Cc1ccc(F)cc1 (stereo not shown) [Example 194, 5-(2-ethoxyphenyl)-1-(4-fluorobenzyl)pyrrolidin-2-one]

SMILES: CCOc1ccccc1C1CCC(=O)N1Cc1ccc(OC(F)(F)F)cc1 (stereo not shown) [Example 195, 5-(2-ethoxyphenyl)-1-(4-(trifluoromethoxy)benzyl)pyrrolidin-2-one]
IC50 (human orexin-1 receptor; [1]): 821 nM | IC50 (human orexin-2 receptor; [1]): 240 nM

IC50 (human orexin-1 receptor; [1]): 724 nM | IC50 (human orexin-2 receptor; [1]): 158 nM
SMILES: COc1cccc(OC)c1C1CCC(=O)N1Cc1ccc(OC(F)(F)F)cc1 (stereo not shown) [Example 196, 5-(2,6-dimethoxyphenyl)-1-(4-(trifluoromethoxy)benzyl)pyrrolidin-2-one]

IC50 (human orexin-1 receptor; [1]): > 10400 nM | IC50 (human orexin-2 receptor; [1]): 1300 nM
SMILES: COc1cccc(OC)c1C1CCC(=O)N1Cc1ccc(F)cc1 (stereo not shown) [Example 197, 5-(2,6-dimethoxyphenyl)-1-(4-fluorobenzyl)pyrrolidin-2-one]

SMILES: COc1cccc(OC)c1C1CC(C)C(=O)N1Cc1cccc(OC(F)F)c1 (stereo not shown) [Example 198, 1-(3-(difluoromethoxy)benzyl)-5-(2,6-dimethoxyphenyl)-3-methylpyrrolidin-2-one]
IC50 (human orexin-1 receptor; [1]): 117 nM | IC50 (human orexin-2 receptor; [1]): 96 nM

SMILES: COc1cccc(OC)c1C1CC(C)C(=O)N1Cc1ccc(OC(F)F)nc1 (stereo not shown) [Example 199, 1-((6-(difluoromethoxy)pyridin-3-yl)methyl)-5-(2,6-dimethoxyphenyl)-3-methylpyrrolidin-2-one]
IC50 (human orexin-1 receptor; [1]): 351 nM | IC50 (human orexin-2 receptor; [1]): 621 nM

SMILES: COc1cccc(OC)c1C1CC(C)C(=O)N1Cc1cccc(OC(F)(F)F)c1 (stereo not shown) [Example 200, 5-(2,6-dimethoxyphenyl)-3-methyl-1-(3-(trifluoromethoxy)benzyl)pyrrolidin-2-one]
IC50 (human orexin-1 receptor; [1]): 108 nM | IC50 (human orexin-2 receptor; [1]): 108 nM

SMILES: COc1cccc(OC)c1C1CC(C)C(=O)N1Cc1cccc(OC(F)F)n1 (stereo not shown) [Example 201, 1-((6-(difluoromethoxy)pyridin-2-yl)methyl)-5-(2,6-dimethoxyphenyl)-3-methylpyrrolidin-2-one]
IC50 (human orexin-1 receptor; [1]): 955 nM | IC50 (human orexin-2 receptor; [1]): 192 nM

SMILES: COc1cccc(OC)c1C1CC(C)C(=O)N1Cc1ccnc(OC(F)F)c1 (stereo not shown) [Example 202, 1-((2-(difluoromethoxy)pyridin-4-yl)methyl)-5-(2,6-dimethoxyphenyl)-3-methylpyrrolidin-2-one]
IC50 (human orexin-1 receptor; [1]): 224 nM | IC50 (human orexin-2 receptor; [1]): 923 nM

SMILES: CCC(c1ccc(OC(F)(F)F)cc1)N1C(=O)C(C)CC1c1c(OC)cccc1OC (stereo not shown) [Example 203, 5-(2,6-dimethoxyphenyl)-3-methyl-1-(1-(4-(trifluoromethoxy)phenyl)propyl)pyrrolidin-2-one]
IC50 (human orexin-1 receptor; [1]): 451 nM | IC50 (human orexin-2 receptor; [1]): 1170 nM

SMILES: COc1cccc(OC)c1C1CC(C)C(=O)N1Cc1cc(OC(F)F)ccn1 (stereo not shown) [Example 204, 1-((4-(difluoromethoxy)pyridin-2-yl)methyl)-5-(2,6-dimethoxyphenyl)-3-methylpyrrolidin-2-one]
IC50 (human orexin-1 receptor; [1]): 6380 nM | IC50 (human orexin-2 receptor; [1]): 1260 nM

SMILES: CCOc1ccc(CN2C(=O)CCCC2c2c(OC)cccc2OC)cc1 (stereo not shown) [Example 205, 6-(2,6-dimethoxyphenyl)-1-(4-ethoxybenzyl)piperidin-2-one]
IC50 (human orexin-1 receptor; [1]): 202 nM | IC50 (human orexin-2 receptor; [1]): 65 nM

SMILES: COc1cccc(OC)c1C1CCCC(=O)N1Cc1ccc(OC(C)C)cc1 (stereo not shown) [Example 206, 6-(2,6-dimethoxyphenyl)-1-(4-isopropoxybenzyl)piperidin-2-one]
IC50 (human orexin-1 receptor; [1]): 383 nM | IC50 (human orexin-2 receptor; [1]): 16 nM

SMILES: CCCOc1ccc(CN2C(=O)CCCC2c2c(OC)cccc2OC)cc1 (stereo not shown) [Example 207, 6-(2,6-dimethoxyphenyl)-1-(4-propoxybenzyl)piperidin-2-one]
IC50 (human orexin-1 receptor; [1]): 169 nM | IC50 (human orexin-2 receptor; [1]): 35 nM

SMILES: COc1cccc(OC)c1C1CCCC(=O)N1Cc1ccc(OCC2CC2)cc1 (stereo not shown) [Example 208, 1-(4-(cyclopropylmethoxy)benzyl)-6-(2,6-dimethoxyphenyl)piperidin-2-one]
IC50 (human orexin-1 receptor; [1]): 1110 nM | IC50 (human orexin-2 receptor; [1]): 39 nM

SMILES: COc1cccc(OCCCO)c1C1CCCC(=O)N1Cc1ccc(OC(F)(F)F)cc1 (stereo not shown) [Example 209, 6-(2-(3-hydroxypropoxy)-6-methoxyphenyl)-1-(4-(trifluoromethoxy)benzyl)piperidin-2-one]
IC50 (human orexin-1 receptor; [1]): 1060 nM | IC50 (human orexin-2 receptor; [1]): 286 nM

SMILES: COc1cccc(OCC2CC2)c1C1CCCC(=O)N1Cc1ccc(OC(F)(F)F)cc1 (stereo not shown) [Example 210, 6-(2-(cyclopropylmethoxy)-6-methoxyphenyl)-1-(4-(trifluoromethoxy)benzyl)piperidin-2-one]
IC50 (human orexin-1 receptor; [1]): 2550 nM | IC50 (human orexin-2 receptor; [1]): 4140 nM

SMILES: COCCOc1cccc(OC)c1C1CCCC(=O)N1Cc1ccc(OC(F)(F)F)cc1 (stereo not shown) [Example 211, 6-(2-methoxy-6-(2-methoxyethoxy)phenyl)-1-(4-(trifluoromethoxy)benzyl)piperidin-2-one]
IC50 (human orexin-1 receptor; [1]): 2780 nM | IC50 (human orexin-2 receptor; [1]): 664 nM

SMILES: CCOc1cccc(OC)c1C1CCCC(=O)N1Cc1ccc(OC(F)(F)F)cc1 (stereo not shown) [Example 212, 6-(2-ethoxy-6-methoxyphenyl)-1-(4-(trifluoromethoxy)benzyl)piperidin-2-one]
IC50 (human orexin-1 receptor; [1]): 216 nM | IC50 (human orexin-2 receptor; [1]): 37 nM

SMILES: COc1cccc(OCCO)c1C1CCCC(=O)N1Cc1ccc(OC(F)(F)F)cc1 (stereo not shown) [Example 213, 6-(2-(2-hydroxyethoxy)-6-methoxyphenyl)-1-(4-(trifluoromethoxy)benzyl)piperidin-2-one]
IC50 (human orexin-1 receptor; [1]): 1380 nM | IC50 (human orexin-2 receptor; [1]): 85 nM

SMILES: COc1cccc(OCC(O)CO)c1C1CCCC(=O)N1Cc1ccc(OC(F)(F)F)cc1 (stereo not shown) [Example 214, 6-(2-(2,3-dihydroxypropoxy)-6-methoxyphenyl)-1-(4-(trifluoromethoxy)benzyl)piperidin-2-one]
IC50 (human orexin-1 receptor; [1]): 3540 nM | IC50 (human orexin-2 receptor; [1]): 735 nM
